The source of these data is ChEMBL document CHEMBL5678818, “Discovery of potent SOS1 inhibitors that block RAS activation via disruption of the RAS-SOS1 interaction” (Proc Natl Acad Sci U S A, 2019).

Molecules are shown by their SMILES.

For experiment [1], the system named is Epidermal growth factor receptor (Homo sapiens), P00533 [UNDEFINED MUTATION]. Description: Inhibition of EGFR L747-T751del/Sins mutant (unknown origin) assessed as residual activity at 100 nM by KINOMEscan analysis relative to control.
Epidermal growth factor receptor (Homo sapiens), P00533 [UNDEFINED MUTATION], sequence (P00533 whole entry, looked up, stated change not applied): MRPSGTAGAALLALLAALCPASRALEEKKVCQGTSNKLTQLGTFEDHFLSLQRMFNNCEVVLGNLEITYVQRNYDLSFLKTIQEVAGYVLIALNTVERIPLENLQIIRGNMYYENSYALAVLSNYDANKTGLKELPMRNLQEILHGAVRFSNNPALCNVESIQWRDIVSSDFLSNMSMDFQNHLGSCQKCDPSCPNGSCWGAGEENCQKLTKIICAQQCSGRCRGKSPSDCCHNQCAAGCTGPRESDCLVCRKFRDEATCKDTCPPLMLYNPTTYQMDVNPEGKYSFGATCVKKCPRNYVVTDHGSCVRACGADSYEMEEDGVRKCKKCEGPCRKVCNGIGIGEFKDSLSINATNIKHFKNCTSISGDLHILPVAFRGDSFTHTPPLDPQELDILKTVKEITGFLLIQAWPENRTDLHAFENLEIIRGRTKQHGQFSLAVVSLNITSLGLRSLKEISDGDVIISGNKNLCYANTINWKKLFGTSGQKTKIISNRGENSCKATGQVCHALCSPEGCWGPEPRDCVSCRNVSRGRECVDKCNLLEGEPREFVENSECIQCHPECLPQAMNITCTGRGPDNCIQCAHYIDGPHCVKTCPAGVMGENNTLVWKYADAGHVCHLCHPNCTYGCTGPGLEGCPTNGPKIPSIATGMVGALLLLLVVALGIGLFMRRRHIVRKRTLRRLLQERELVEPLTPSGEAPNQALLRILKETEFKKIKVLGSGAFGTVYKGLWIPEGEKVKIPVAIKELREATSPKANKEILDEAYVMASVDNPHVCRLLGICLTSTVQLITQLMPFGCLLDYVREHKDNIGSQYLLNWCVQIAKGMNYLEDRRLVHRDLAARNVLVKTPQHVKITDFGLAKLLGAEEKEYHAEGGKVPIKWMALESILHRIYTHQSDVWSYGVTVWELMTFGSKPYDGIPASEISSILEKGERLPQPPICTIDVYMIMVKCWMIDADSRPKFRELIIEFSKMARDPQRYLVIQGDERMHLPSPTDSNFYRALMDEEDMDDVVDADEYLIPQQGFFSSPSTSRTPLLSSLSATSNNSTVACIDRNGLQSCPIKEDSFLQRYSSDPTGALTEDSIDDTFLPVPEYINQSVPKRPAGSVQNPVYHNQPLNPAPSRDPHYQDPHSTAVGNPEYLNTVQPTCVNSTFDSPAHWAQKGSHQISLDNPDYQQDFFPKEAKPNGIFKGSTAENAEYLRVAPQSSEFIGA
Experiment [2] concerns the target T1, Serine/threonine-protein kinase TNNI3K (Homo sapiens) (UniProt Q59H18).
T1 sequence (whole entry): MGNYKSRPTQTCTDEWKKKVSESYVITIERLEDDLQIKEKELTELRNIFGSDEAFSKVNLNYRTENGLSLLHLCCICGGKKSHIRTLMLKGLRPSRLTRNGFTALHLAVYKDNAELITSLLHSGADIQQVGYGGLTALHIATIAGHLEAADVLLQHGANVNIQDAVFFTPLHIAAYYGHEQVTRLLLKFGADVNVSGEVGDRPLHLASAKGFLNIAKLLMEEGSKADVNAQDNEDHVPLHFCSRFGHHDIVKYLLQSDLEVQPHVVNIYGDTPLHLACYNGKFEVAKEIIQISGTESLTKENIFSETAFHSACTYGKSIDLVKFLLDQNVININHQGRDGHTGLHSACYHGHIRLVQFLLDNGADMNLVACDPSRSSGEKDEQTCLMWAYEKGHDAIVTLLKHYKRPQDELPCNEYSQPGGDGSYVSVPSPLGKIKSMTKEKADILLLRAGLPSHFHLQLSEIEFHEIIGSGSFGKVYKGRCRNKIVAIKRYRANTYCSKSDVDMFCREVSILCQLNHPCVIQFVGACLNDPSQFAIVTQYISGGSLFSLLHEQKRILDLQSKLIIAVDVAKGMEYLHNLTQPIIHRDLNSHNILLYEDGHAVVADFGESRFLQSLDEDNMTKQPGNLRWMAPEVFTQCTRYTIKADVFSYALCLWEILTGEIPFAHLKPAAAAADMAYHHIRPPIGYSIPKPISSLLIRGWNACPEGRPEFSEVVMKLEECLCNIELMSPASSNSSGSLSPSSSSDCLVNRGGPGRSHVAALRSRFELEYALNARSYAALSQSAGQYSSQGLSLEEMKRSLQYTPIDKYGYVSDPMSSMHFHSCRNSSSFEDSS
The experiment can be described thus: Inhibition of TNNI3K (unknown origin) assessed as residual activity at 100 nM by KINOMEscan analysis relative to control.

Experiment [3] deals with T2, Mitogen-activated protein kinase kinase kinase 15 (Homo sapiens) (UniProt Q6ZN16).
T2 sequence (whole entry): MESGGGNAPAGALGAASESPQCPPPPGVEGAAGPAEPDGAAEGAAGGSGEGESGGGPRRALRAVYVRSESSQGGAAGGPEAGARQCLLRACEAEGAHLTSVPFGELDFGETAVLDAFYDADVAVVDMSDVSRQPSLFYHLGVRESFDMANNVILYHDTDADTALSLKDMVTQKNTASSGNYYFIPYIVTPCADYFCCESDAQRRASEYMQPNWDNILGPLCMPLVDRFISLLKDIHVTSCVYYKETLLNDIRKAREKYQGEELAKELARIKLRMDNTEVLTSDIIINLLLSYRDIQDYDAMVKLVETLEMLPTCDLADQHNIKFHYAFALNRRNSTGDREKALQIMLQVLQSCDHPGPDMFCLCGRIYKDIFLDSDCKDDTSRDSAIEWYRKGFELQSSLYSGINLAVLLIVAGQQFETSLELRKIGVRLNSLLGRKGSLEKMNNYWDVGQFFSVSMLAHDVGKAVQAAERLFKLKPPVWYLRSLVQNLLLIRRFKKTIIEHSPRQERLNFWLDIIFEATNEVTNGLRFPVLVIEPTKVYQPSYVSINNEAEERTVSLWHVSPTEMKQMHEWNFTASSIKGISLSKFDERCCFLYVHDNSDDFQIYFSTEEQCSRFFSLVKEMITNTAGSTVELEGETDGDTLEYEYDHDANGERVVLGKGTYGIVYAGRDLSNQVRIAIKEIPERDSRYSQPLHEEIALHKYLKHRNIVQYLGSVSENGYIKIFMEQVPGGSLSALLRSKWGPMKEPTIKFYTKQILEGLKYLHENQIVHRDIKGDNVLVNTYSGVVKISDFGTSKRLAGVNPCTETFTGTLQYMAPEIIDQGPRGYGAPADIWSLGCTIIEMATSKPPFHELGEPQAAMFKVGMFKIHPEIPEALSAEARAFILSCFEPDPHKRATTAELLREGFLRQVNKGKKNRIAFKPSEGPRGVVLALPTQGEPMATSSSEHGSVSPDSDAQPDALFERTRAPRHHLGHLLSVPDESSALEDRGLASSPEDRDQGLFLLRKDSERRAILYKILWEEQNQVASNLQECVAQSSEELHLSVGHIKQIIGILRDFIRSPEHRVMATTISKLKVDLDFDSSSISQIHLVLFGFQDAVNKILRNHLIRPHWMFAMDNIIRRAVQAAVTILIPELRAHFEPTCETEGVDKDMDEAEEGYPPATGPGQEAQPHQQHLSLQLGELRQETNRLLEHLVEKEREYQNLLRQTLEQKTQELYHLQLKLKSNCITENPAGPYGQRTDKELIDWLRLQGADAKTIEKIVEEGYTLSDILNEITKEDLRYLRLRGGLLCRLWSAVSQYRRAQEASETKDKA
Description: Inhibition of MAP3K15 (unknown origin) assessed as residual activity at 100 nM by KINOMEscan analysis relative to control.

Experiment [4] has as its target Ribosomal protein S6 kinase alpha-6 (Homo sapiens) (UniProt Q9UK32). The experiment can be described thus: Inhibition of N-terminal RSK4 […] domain 1 (unknown origin) assessed as residual activity at 100 nM by KINOMEscan analysis relative to control.
Experiment [5] has as its target Phosphatidylinositol 4,5-bisphosphate 3-kinase catalytic subunit alpha isoform (Homo sapiens) (UniProt P42336). The experiment can be described thus: Inhibition of PIK3CA (unknown origin) assessed as residual activity at 100 nM by KINOMEscan analysis relative to control.
Experiment [6] has as its system Receptor-type tyrosine-protein kinase FLT3 (Homo sapiens), P36888 [D835H]. The experiment can be described thus: Inhibition of FLT3 D835H mutant (unknown origin) assessed as residual activity at 100 nM by KINOMEscan analysis relative to control.
In experiment [7] the test system is Epidermal growth factor receptor (Homo sapiens), P00533 [UNDEFINED MUTATION]. Description: Inhibition of EGFR S752-I759del mutant (unknown origin) assessed as residual activity at 100 nM by KINOMEscan analysis relative to control.
Experiment [8] concerns the target Serine/threonine-protein kinase WNK1 (Homo sapiens) (UniProt Q9H4A3). The experiment can be described thus: Inhibition of WNK1 (unknown origin) assessed as residual activity at 100 nM by KINOMEscan analysis relative to control.

Phosphatidylinositol 4,5-bisphosphate 3-kinase catalytic subunit alpha isoform (Homo sapiens), sequence (P42336 whole entry, canonical isoform): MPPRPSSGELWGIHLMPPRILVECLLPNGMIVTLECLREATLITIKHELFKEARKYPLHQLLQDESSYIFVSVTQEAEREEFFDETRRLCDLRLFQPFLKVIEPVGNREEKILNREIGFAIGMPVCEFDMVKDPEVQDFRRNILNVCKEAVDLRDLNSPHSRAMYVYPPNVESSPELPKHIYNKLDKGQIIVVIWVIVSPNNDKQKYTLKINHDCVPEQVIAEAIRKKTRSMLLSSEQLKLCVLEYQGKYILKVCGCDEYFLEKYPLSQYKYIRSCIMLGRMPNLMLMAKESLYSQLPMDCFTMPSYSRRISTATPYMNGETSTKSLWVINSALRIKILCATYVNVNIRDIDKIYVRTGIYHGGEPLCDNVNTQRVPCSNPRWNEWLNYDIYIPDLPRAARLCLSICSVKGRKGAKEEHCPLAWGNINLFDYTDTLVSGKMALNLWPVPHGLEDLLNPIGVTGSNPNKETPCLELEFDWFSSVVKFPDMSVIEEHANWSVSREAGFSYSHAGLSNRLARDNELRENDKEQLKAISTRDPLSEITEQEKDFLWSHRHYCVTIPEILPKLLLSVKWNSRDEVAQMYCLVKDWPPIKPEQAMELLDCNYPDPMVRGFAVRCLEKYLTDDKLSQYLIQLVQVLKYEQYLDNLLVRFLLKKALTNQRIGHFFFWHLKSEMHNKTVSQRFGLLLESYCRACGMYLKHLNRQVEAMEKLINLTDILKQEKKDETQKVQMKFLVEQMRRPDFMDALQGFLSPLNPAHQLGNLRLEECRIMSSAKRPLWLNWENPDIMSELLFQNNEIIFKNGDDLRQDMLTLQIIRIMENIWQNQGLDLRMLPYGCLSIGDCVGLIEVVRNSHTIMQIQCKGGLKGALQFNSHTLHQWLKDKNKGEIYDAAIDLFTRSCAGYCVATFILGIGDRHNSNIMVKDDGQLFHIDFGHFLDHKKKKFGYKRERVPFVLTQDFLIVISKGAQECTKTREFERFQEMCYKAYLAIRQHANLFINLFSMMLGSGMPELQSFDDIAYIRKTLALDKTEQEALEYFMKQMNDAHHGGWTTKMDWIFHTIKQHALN
Ribosomal protein S6 kinase alpha-6 (Homo sapiens), sequence (Q9UK32 whole entry, canonical isoform): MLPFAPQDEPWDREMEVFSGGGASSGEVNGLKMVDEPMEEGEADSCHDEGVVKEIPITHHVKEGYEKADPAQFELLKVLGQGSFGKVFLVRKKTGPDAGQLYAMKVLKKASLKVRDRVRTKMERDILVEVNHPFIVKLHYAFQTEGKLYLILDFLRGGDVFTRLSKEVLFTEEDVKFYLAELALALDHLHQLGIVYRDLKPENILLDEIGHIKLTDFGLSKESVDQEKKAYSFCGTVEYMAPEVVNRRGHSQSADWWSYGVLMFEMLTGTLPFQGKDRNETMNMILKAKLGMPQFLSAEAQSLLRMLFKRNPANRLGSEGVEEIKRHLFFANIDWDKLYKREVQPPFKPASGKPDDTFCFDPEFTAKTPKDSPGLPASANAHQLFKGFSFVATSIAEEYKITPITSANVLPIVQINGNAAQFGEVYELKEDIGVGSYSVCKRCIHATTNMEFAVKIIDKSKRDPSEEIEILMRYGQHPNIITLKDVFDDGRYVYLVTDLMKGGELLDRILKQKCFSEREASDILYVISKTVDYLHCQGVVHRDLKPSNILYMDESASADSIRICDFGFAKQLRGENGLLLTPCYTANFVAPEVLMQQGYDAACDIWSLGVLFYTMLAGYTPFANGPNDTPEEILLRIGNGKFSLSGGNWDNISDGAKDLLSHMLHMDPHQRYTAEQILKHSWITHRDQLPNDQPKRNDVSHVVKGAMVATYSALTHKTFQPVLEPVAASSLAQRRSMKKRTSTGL

`COc1cc2ncnc(N[C@H](C)c3cccc4ccccc34)c2cc1OC`: the Activity is 80% in experiment [1]; 85% in experiment [2]; 86% in experiment [3]; 94% in experiment [4]; 66% in experiment [5]; 92% in experiment [6]. Also, the Activity was 93% in experiment [7] and 83% in experiment [8].
